Measurements as given in patent US11339171B2, “MDM2 inhibitors” (Gan & Lee Pharmaceuticals, priority 2017, dated 2022).
Where “and” joins values, the source holds several entries; their conditions need not be identical. Equal entries are not always repeated. Where two headings read alike, the source gives them in different places.

Columns and labels:
[1] = Pharmacokinetics in ICR mice after intravenous and intragastric administration; assay type: in vivo; conditions: for MRT last: read-out: MRT(0-t); for MRT inf: read-out: MRT(0-∞); for Vd: read-out: Vz; for bioavailability: PO 5 mg/kg vs IV 2 mg/kg, from mean values, read-out: F* (bioavailability)
Procedure, shortened: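 Compounds were dissolved at 0.5 mg/ml in DMSO/PEG400/HP-β-CD saline vehicle and given to overnight-fasted male ICR mice, 2 mg/kg by vein or 5 mg/kg by gavage (n=3 each). Plasma was then protein-precipitated, assayed by LC-MS/MS, and PK parameters including oral bioavailability were derived.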

MDM2 = target: T1, MDM2 (Homo sapiens, UniProt Q00987); test: Inhibition test of MDM2-P53 (GST-MDM2, Biotin-P53, Anti-GST-Tb, SA-XL665); assay type: binding
T1 construct: made in house
Procedure, shortened: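 HTRF-type assay using 4 nM GST-MDM2 (final), Biotin-P53, SA-XL665 and anti-GST-Tb in PBS with 0.1% BSA, 5 mM DTT and 1 mM AEBSF. Compounds in 5-fold serial dilutions over twelve points; incubation 90 min at 25° C with shaking before plate-reader read-out.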

[2] = tested on: human osteosarcoma cell line SJSA-1; test: Inhibition of proliferation of human osteosarcoma cell line SJSA-1 (DAPI staining, In Cell Analyzer); conditions: Homo sapiens, SJSA-1, 72 h, read-out: IC50 (nM), inhibitory activity on proliferation of human osteosarcoma cell line SJSA-1, SJSA-1, incubated 72 h
[3] = ICR mice, IV 2 mg/kg, individual animal, 2 mg/kg
[4] = ICR mice, PO 5 mg/kg, individual animal, 5 mg/kg
[5] = male, ICR, mouse, plasma, iv, 2 mg/kg, ICR mice, IV 2 mg/kg, individual animal
[6] = male, ICR, mouse, plasma, iv, 2 mg/kg, ICR mice, IV 2 mg/kg, individual animal, read-out: AUC(0-t)
[7] = male, ICR, mouse, plasma, iv, 2 mg/kg, ICR mice, IV 2 mg/kg, individual animal, read-out: Cmax
[8] = male, ICR, mouse, plasma, iv, 2 mg/kg, ICR mice, IV 2 mg/kg, individual animal, read-out: Tmax
[9] = male, ICR, mouse, plasma, iv, 2 mg/kg, ICR mice, IV 2 mg/kg, individual animal, read-out: t1/2 (converted)
[10] = male, ICR, mouse, plasma, iv, 2 mg/kg, ICR mice, IV 2 mg/kg, mean of 3 animals
[11] = male, ICR, mouse, plasma, iv, 2 mg/kg, ICR mice, IV 2 mg/kg, mean of 3 animals, read-out: AUC(0-t)
[12] = male, ICR, mouse, plasma, iv, 2 mg/kg, ICR mice, IV 2 mg/kg, mean of 3 animals, read-out: Cmax
[13] = male, ICR, mouse, plasma, iv, 2 mg/kg, ICR mice, IV 2 mg/kg, mean of 3 animals, read-out: Tmax
[14] = male, ICR, mouse, plasma, iv, 2 mg/kg, ICR mice, IV 2 mg/kg, mean of 3 animals, read-out: t1/2 (converted)
[15] = male, ICR, mouse, plasma, po, 5 mg/kg, ICR mice, PO 5 mg/kg, individual animal
[16] = male, ICR, mouse, plasma, po, 5 mg/kg, ICR mice, PO 5 mg/kg, individual animal, read-out: AUC(0-t)
[17] = male, ICR, mouse, plasma, po, 5 mg/kg, ICR mice, PO 5 mg/kg, individual animal, read-out: Cmax
[18] = male, ICR, mouse, plasma, po, 5 mg/kg, ICR mice, PO 5 mg/kg, individual animal, read-out: Tmax
[19] = male, ICR, mouse, plasma, po, 5 mg/kg, ICR mice, PO 5 mg/kg, individual animal, read-out: t1/2 (converted)
[20] = male, ICR, mouse, plasma, po, 5 mg/kg, ICR mice, PO 5 mg/kg, mean of 3 animals
[21] = male, ICR, mouse, plasma, po, 5 mg/kg, ICR mice, PO 5 mg/kg, mean of 3 animals, read-out: AUC(0-t)
[22] = male, ICR, mouse, plasma, po, 5 mg/kg, ICR mice, PO 5 mg/kg, mean of 3 animals, read-out: Cmax
[23] = male, ICR, mouse, plasma, po, 5 mg/kg, ICR mice, PO 5 mg/kg, mean of 3 animals, read-out: Tmax
[24] = male, ICR, mouse, plasma, po, 5 mg/kg, ICR mice, PO 5 mg/kg, mean of 3 animals, read-out: t1/2 (converted)
[25] = male, ICR, mouse, plasma, po, 5 mg/kg, oral intragastric administration 5 mg/kg, read-out: AUC0-t
[26] = male, ICR, mouse, plasma, po, 5 mg/kg, oral intragastric administration 5 mg/kg, read-out: half-life (converted)

T1 sequence (Q00987 whole entry): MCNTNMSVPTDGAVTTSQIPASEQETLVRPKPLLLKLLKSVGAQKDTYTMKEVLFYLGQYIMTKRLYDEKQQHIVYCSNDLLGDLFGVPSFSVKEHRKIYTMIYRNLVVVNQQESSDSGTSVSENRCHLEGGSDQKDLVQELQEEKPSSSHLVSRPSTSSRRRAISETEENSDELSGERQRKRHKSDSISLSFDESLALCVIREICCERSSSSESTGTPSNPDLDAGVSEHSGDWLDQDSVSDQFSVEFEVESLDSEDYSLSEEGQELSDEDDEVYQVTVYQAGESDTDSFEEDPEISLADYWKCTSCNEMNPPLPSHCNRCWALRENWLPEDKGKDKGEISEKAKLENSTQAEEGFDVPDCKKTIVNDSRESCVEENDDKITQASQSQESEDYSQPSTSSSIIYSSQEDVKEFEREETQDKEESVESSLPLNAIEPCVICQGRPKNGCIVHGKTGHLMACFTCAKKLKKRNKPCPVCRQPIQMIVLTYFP

In the case of `COc1nc(C2CC2)ncc1-c1nc2c(n1C(C)C)[C@@]1(C(=O)Nc3cc(Cl)ccc31)N(c1cc(Cl)ccc1C)C2=O` [Example S-121, (S)-6-chloro-5′-(5-chloro-2-methylphenyl)-2′-(2-cyclopropyl-4-methoxypyrimidin-5-yl)-3′-isopropyl-3′H-spiro[dihydroindole-3,4′-pyrrolo[3,4-d]imidazole]-2,6′(5′H)-dione], the “AUC(0-t)” value [1, 3] is reported as 26953.62 ng·h/mL and 24572.30 ng·h/mL, the “AUC(0-∞)” value [1, 3] is reported as 27749.72 ng·h/mL and 25488.79 ng·h/mL and the CL [1, 3] is reported as 1.20 mL/min/kg and 1.31 mL/min/kg. The Cmax [1, 3] was 3576.94 ng/mL and 3887.60 ng/mL, the “MRT(0-t)” value [1, 3] was 5.04 h and 5.26 h and the “MRT(0-∞)” value [1, 3] was 5.79 h and 6.22 h. For the same compound, the Vz [1, 3] was 0.53 L/kg and 0.62 L/kg, the t1/2 [1, 3] was 5.09 h and 5.50 h and the “AUC(0-t)” value [1, 4] was 43063.09 ng·h/mL and 40782.54 ng·h/mL. The “AUC(0-∞)” value [1, 4] was 43407.01 ng·h/mL and 41032.91 ng·h/mL, the Cmax [1, 4] was 4835.52 ng/mL and 4714.57 ng/mL and the “MRT(0-t)” value [1, 4] was 5.27 h and 5.40 h. For the same compound, the “MRT(0-∞)” value [1, 4] was 5.45 h and 5.54 h, the Tmax [1, 4] was 4.00 h and the t1/2 [1, 4] was 3.34 h and 3.14 h. It also gave an AUC(0-inf) [1, 5] of 29400 ng·h/mL, a clearance [1, 5] of 1.14 mL/min/kg and an AUC(0-t) [1, 6] of 28400 ng·h/mL. It also gave a Cmax [1, 7] of 3350 ng/mL, an MRT last [1, 5] of 5.15 h and an MRT inf [1, 5] of 6.03 h. It also gave a Tmax [1, 8] of 0.08 h, a Vd [1, 5] of 0.52 L/kg and a half-life [1, 9] of 5.25 h. The AUC(0-inf) [1, 10] was 27500 ng·h/mL, the clearance [1, 10] was 1.21 mL/min/kg and the AUC(0-t) [1, 11] was 26600 ng·h/mL. It also gave a Cmax [1, 12] of 3600 ng/mL, an MRT last [1, 10] of 5.15 h and an MRT inf [1, 10] of 6.01 h. For the same compound, the Tmax [1, 13] was 0.083 h, the Vd [1, 10] was 0.56 L/kg and the half-life [1, 14] was 5.28 h. For the same compound, the AUC(0-inf) [1, 15] was 40300 ng·h/mL, the AUC(0-t) [1, 16] was 40100 ng·h/mL and the Cmax [1, 17] was 4920 ng/mL. For the same compound, the MRT last [1, 15] was 4.96 h, the MRT inf [1, 15] was 5.08 h and the Tmax [1, 18] was 2 h. For the same compound, the half-life [1, 19] was 3.09 h, the AUC(0-inf) [1, 20] was 41600 ng·h/mL and the AUC(0-t) [1, 21] was 41300 ng·h/mL. The Cmax [1, 22] was 4820 ng/mL, the MRT last [1, 20] was 5.21 h and the MRT inf [1, 20] was 5.36 h. The Tmax [1, 23] was 3.33 h, the half-life [1, 24] was 3.19 h and the AUC(0-t) [1, 25] was 41300 ng·h/mL. It also gave a half-life [1, 26] of 3.19 h, a bioavailability ([1]; male, mouse, plasma, ICR mice) of 62% and an IC50 (MDM2) of 3.35 nM. The IC50 [2] was 67 nM.
With `COc1cc(OC)c(-c2nc3c(n2C(C)C)[C@@]2(C(=O)Nc4cc(Cl)ccc42)N(c2cc(Cl)cnc2C)C3=O)cn1` [Example S-131, (S)-6-chloro-5′-(5-chloro-2-methylpyridin-3-yl)-2′-(4,6-dimethoxypyridin-3-yl)-3′-isopropyl-3′H-spiro[dihydroindole-3,4′-pyrrolo[3,4-d]imidazole]-2,6′(5′H)-dione] the “AUC(0-t)” value [1, 3] was 1579.23 ng·h/mL and 1776.79 ng·h/mL, the “AUC(0-∞)” value [1, 3] was 1594.10 ng·h/mL and 1788.59 ng·h/mL and the CL [1, 3] was 20.91 mL/min/kg and 18.64 mL/min/kg. For the same compound, the Cmax [1, 3] was 2021.33 ng/mL and 1997.01 ng/mL, the “MRT(0-t)” value [1, 3] was 0.90 h and 0.94 h and the “MRT(0-∞)” value [1, 3] was 0.96 h and 0.98 h. The Vz [1, 3] was 1.78 L/kg and 1.45 L/kg, the t1/2 [1, 3] was 0.98 h and 0.90 h and the “AUC(0-t)” value [1, 4] was 5902.77 ng·h/mL and 6839.45 ng·h/mL. The “AUC(0-∞)” value [1, 4] was 6003.28 ng·h/mL and 7052.50 ng·h/mL, the Cmax [1, 4] was 1853.01 ng/mL and 1794.96 ng/mL and the “MRT(0-t)” value [1, 4] was 2.27 h and 2.45 h. The “MRT(0-∞)” value [1, 4] was 2.40 h and 2.68 h, the t1/2 [1, 4] was 1.28 h and 1.47 h and the AUC(0-inf) [1, 5] was 1260 ng·h/mL. It also gave a clearance [1, 5] of 26.4 mL/min/kg, an AUC(0-t) [1, 6] of 1260 ng·h/mL and a Cmax [1, 7] of 1780 ng/mL. It also gave an MRT last [1, 5] of 0.71 h, an MRT inf [1, 5] of 0.73 h and a Tmax [1, 8] of 0.08 h. It also gave a Vd [1, 5] of 1.73 L/kg, a half-life [1, 9] of 0.76 h and an AUC(0-inf) [1, 10] of 1550 ng·h/mL. For the same compound, the clearance [1, 10] was 22 mL/min/kg, the AUC(0-t) [1, 11] was 1540 ng·h/mL and the Cmax [1, 12] was 1930 ng/mL. For the same compound, the MRT last [1, 10] was 0.85 h, the MRT inf [1, 10] was 0.89 h and the Tmax [1, 13] was 0.083 h. The Vd [1, 10] was 1.65 L/kg, the half-life [1, 14] was 0.88 h and the AUC(0-inf) [1, 15] was 3770 ng·h/mL. The AUC(0-t) [1, 16] was 3740 ng·h/mL, the Cmax [1, 17] was 1440 ng/mL and the MRT last [1, 15] was 1.9 h. For the same compound, the MRT inf [1, 15] was 1.95 h, the Tmax [1, 18] was 1 h and the half-life [1, 19] was 1.03 h. It also gave an AUC(0-inf) [1, 20] of 5610 ng·h/mL, an AUC(0-t) [1, 21] of 5500 ng·h/mL and a Cmax [1, 22] of 1700 ng/mL. For the same compound, the MRT last [1, 20] was 2.21 h, the MRT inf [1, 20] was 2.34 h and the Tmax [1, 23] was 1 h. The half-life [1, 24] was 1.26 h, the AUC(0-t) [1, 25] was 5500 ng·h/mL and the half-life [1, 26] was 1.26 h. For the same compound, the bioavailability ([1]; male, mouse, plasma, ICR mice) was 143%, the IC50 (MDM2) was 1.17 nM and the IC50 [2] was 46.3 nM.
